Measured values from patent publication EP4733301A1 (priority 2023, dated 2025).

Key:
[1] = X-ray-induced release of coumarin reporter 7-Deacca from Compounds 1-9 in phosphate buffer (UPLC-MS); format: physicochemical; conditions: for release efficiency in KNO3 solution relative to control: 10 mM KNO3 added; for reactivity to radiation reduction: ortho-/para-substituted esters versus meta-substituted ones (Compounds 2, 5, 8); for release efficiency (in words): NAP esters
Protocol: (§1) Pretreated solution (approx. 1-2 mL) was sealed in glass vials with rubber stoppers and metal caps. All tubular radiation experiments were pretreated using the freeze-thaw method to remove dissolved oxygen from the solution. The solution was frozen, then vacuum was applied for several minutes until thawed to room temperature.
X-ray irradiation was performed using an X-ray generator (RS2000 Pro 225, 225 kV, 17.7 mA; Rad Source Technologies, Inc).
(§2) Tubes were irradiated with X-rays, with a total dose of 0-60 Gy, at a rate of 2 Gy/min. Cells were irradiated with X-rays at different doses at a rate of 2 Gy/min.
• 1. Standard preparation and calibration curves. The standard (coumarin, MeRho or MMAE) was dissolved in DMSO solution to make a 10 mM stock solution. The stock was diluted with deionized water to obtain solutions of suitable concentration gradients. These standard solutions were analyzed by UPLC-MS to generate calibration curves for the respective standard compounds. The peak areas of the target compounds were within the linear range of the curves. The relative standard deviation for duplicate injections of each standard solution was less than 5.0%. • 2. Analysis and calculation. After different treatments, the reaction mixtures were analyzed by ultra-performance liquid chromatography-mass spectrometry. The amount of cargo was calculated as equivalents of their respective external standard.
(§3) As a representative example, the detailed procedure for X-ray-induced reduction of Compound 1 is described below. A stock solution of Compound 1 (10 mM in DMSO) was diluted in PB (0.02 M, pH 7.4) to a final concentration of 10 µM. Solutions were deoxygenated using the aforementioned deoxygenation step prior to X-ray irradiation from 0 to 60 Gy. Reaction mixtures were analyzed using UPLC and a fluorescence spectrometer, and amount of product release was quantified via standard curves.
(§4) The elution program for Compounds 1-9 and NAPC-MeRho was Method a: H2O + 5% ACN (0 min)-95% H2O + 5% ACN (0.2 min)-5% H2O + 95% ACN (2.8 min)-5% H2O + 95% ACN (2.9 min)-95% H2O + 5% ACN (3.0 min)-95% H2O + 5% ACN (4.0 min). Injection volume: 10 µL.
10 mM KNO3 was added to the radiation system of Compound 1 (10 µM, in PB, pH 7.4) Reactivity test (10 µM, 0.1% DMSO): Determination of 7-Deacca release in PB (20 mM, pH 7.4) after deoxygenation and 60 Gy X-ray irradiation. Encouragingly, UPLC-MS detected coumarin release (FIG. 32), with a release efficiency of 33.5 ± 9.1% (FIG. 4), resulting in 55.8 nM/Gy.
7-Deacca was designed to be protected by a series of molecules Compounds 2-9 with pyridyl, quinolinyl, and N-methylpyridyl groups. Stock solutions of Compounds 2-9 (10 mM in DMSO) were diluted in PB (10 µM, 0.1% DMSO), then irradiated with 60 Gy X-rays, and analyzed by UPLC-MS to determine the yield of free 7-Deacca (FIG. 35).
10 mM HCOONa or KNO3 was added to the radiation system of Compound 7 (10 µM, in PB, pH 7.4). […] It can be explained that radicalized HCOONa in water reacts with ·OH and hydrogen radicals (·H) to generate carboxylate radicals […], which is another reducing agent with a standard electrode potential of -1.90 V, which may also be a possible explanation for the difference in its radiation reduction efficiency. Compared to the quinolinyl moiety with higher electron density (lower reduction potential), the positive charge on the pyridyl moiety with lower electron density (higher reduction potential) has higher affinity for the negatively charged e^-aq, resulting in the highest radiation reduction efficiency among them for the pyridyl moiety.

[2] = X-ray-induced AMC release from Compound 10 in PB (UPLC); format: physicochemical; conditions: 10 µM, 0.02 M PB pH 7.4, 0-60 Gy
Protocol: as §1, §2, §3
(§5) Method B was used for elution of Compound 10, mixtures of Compound 7 with other RPGs, and mixtures of Compound 10 with other rpg: 95% H2O + 5% ACN (0 min)-95% H2O + 5% ACN (0.2 min)-70% H2O + 30% ACN (3.0 min)-70% H2O + 30% ACN (3.6 min)-95% H2O + 5% ACN (3.7 min)-95% H2O + 5% ACN (5.0 min). Injection volume: 10 µL.
The inventors synthesized Compound 10 (NAPC-AMC) containing NAP-protected 7-amino-4-methylcoumarin (AMC). […]

[3] = Competition reaction of Compound 10 with prior-art RPGs (Compounds 11, 12, 13) under 60 Gy X-ray; format: physicochemical; conditions: each component 10 µM in PB pH 7.4, deoxygenated, versus Compounds 11, 12, 13
Protocol: as §5
The inventors mixed the reported RPGs with Compound 10, providing solutions of [10+11], [10+12], [10+13], respectively (each component: 10 µM in PB, pH 7.4). The solutions were deoxygenated and irradiated with 60 Gy X-rays, and their release efficiencies were analyzed by UPLC-MS (FIG. 11) and summarized in FIG. 12. The lower part of the bars and the upper part of the bars represent the activation ratio of Compound 10 and each competing component in the irradiation system, respectively.

U87MG cells = experiment: Confocal fluorescence imaging of radiation-induced MeRho release in cells; format: cell-based; conditions: 10 µM, hypoxic conditions, 30 minutes, no radiation
Protocol: (§6) Typically, cells were seeded at a density of 2×10^5 cells/mL in 35-mm confocal dishes and cultured under hypoxic conditions in an incubator containing 5% CO2 at 37 °C for 24 hours. A stock solution of NAPC-MeRho (10 mM) was prepared in DMSO. Attached cells were washed twice with PBS before adding the fluorescence probe at a final concentration of 10 µM in 1 mL deoxygenated HBSS. After hypoxic incubation at 37 °C for 30 min, they were subjected to X-ray irradiation for […] (0, 4, 8, 16 Gy), and fluorescence images were taken with a laser scanning confocal microscope (Nikon, Japan). Excitation wavelength was 488 nm, fluorescence emission window was 500-530 nm. For imaging quantification, all cells on the image were set as regions of interest, and fluorescence intensity was measured using Nikon imaging software (version 4.0).
(§7) Subsequent irradiation with 4, 8, and 16 Gy presented the appearance of green fluorescence from MeRho release (FIG. 16, right lanes), with fluorescence intensity positively correlated with radiation dose (FIG. 17).

[4] = tested on: 4T1-FAP, HT1080-FAP and U87-MG cells; format: cell-based; conditions: 10 µM NAPC-MeRho, different cell lines
Protocol: (§8) The inventors performed proof-of-concept for a radiation-responsive fluorescent probe NAPC-MeRho (FIG. 13), designed for quantitative analysis of radiation-induced release. The NAPC linker selectively responds to e^-aq generated by X-rays, where C-O bond cleavage of the carbamate occurs, followed by decarboxylation to release fluorescent MeRho (FIG. 13). Under physiological conditions, irradiating 10 µM NAPC-MeRho with a gradient dose from 0 to 60 Gy caused fluorescence intensity to increase in a linear manner (FIG. 14 and FIG. 15), and UPLC spectra determined a G-value for MeRho release of 140 nM/Gy (FIG. 15). To test whether the radiation reduction reaction can occur in living cells without interference, stability to biological reducing agents and cytotoxicity to different cell lines were evaluated. […] VcNa at pH 7.4, and cell viability with 10 µM NAPC-MeRho was greater than 95%.
Cell viability was assessed using CCK-8 assay. Each experiment was performed in triplicate. […] Incubated at 37 °C, 5% CO2 for 2 hours, absorbance was measured at 450 nm. The absorbance of treated cells was compared to that of the control group, whose viability was set at 100%.

4T1-FAP cells = experiment: Confocal fluorescence imaging of radiation-induced MeRho release in cells; format: cell-based, Mouse; conditions: 10 µM
Protocol: as §6, §7

[5] = X-ray-induced MeRho release from NAPC-MeRho in PB (fluorescence, UPLC); format: physicochemical; conditions: 10 µM, gradient dose 0 to 60 Gy
Protocol: as §3, §4
The inventors performed proof-of-concept for a radiation-responsive fluorescent probe NAPC-MeRho (FIG. 13), designed for quantitative analysis of radiation-induced release. […] Under physiological conditions, irradiating 10 µM NAPC-MeRho with a gradient dose from 0 to 60 Gy caused fluorescence intensity to increase in a linear manner (FIG. 14 and FIG. 15), and UPLC spectra determined a G-value for MeRho release of 140 nM/Gy (FIG. 15). To test whether the radiation reduction reaction can occur in living cells without interference, stability to biological reducing agents and cytotoxicity to different cell lines were evaluated. […]

HT1080-FAP cells = experiment: Confocal fluorescence imaging of radiation-induced MeRho release in cells; format: cell-based, Human; conditions: 10 µM, hypoxic conditions, 30 minutes, no radiation
Protocol: as §6, §7

[6] = format: physicochemical
Protocol: 20 µM NAPC-MeRho was mixed with an equal volume of 2 mM sodium ascorbate solution, incubated and detected at different time points using a fluorescence spectrometer and UPLC-MS. Stability test results in cysteine and γ-glutathione solutions were the same.
as §8

4T1-FAP tumors = experiment: Radiation activation of NAPC-MeRho in tumors, fluorescence of tumor sections; format: in vivo, BALB/c mice; conditions: 20 µL of 100 µM locally injected
Protocol: Then, when examining the reduction of NAPC-MeRho in tumor-bearing mice, 20 µL of 100 µM NAPC-MeRho in PBS was locally injected into 4T1-FAP tumors, and X-ray therapy of 4 Gy was administered 30 minutes post-injection. Due to limited green light penetration, tumors were harvested and quickly frozen, and fluorescence intensity was quantified via confocal imaging. […] Furthermore, the MeRho signal was statistically greater than the non-irradiated group (FIG. 19), providing conclusive evidence that radiation reduction reactions are feasible in vivo.

[7] = 10 µM, 20 Gy irradiation (control conditions)

Compound: CCN(CC)c1ccc2cc(C(=O)OCc3ccncc3)c(=O)oc2c1 [Compound 1, Pyridin-4-ylmethyl-7-(diethylamino)-2-oxo-2H-chromene-3-carboxylate]
- release efficiency (coumarin / 7-Deacca release) ([1]; 10 µM, 0.1% DMSO, PB 20 mM pH 7.4, deoxygenated, 60 Gy X-ray): 33.5 ± 9.1%
- coumarin release efficiency ([1]; 10 µM, 20 Gy + 10 mM HCO2Na): 27.3%
- coumarin release efficiency ([1]; 10 µM, 20 Gy + 10 mM KNO3): 1.3%
- coumarin release efficiency [1, 7]: 16.7%
- release efficiency in KNO3 solution relative to control ([1]; 10 µM in PB pH 7.4): significantly reduced
- release per radiation dose ([1]; from release efficiency at 60 Gy, 10 µM in PB pH 7.4): 55.8 nM/Gy
- reactivity to radiation reduction ([1]; 60 Gy X-ray): more reactive

Compound: CCN(CC)c1ccc2cc(C(=O)OCc3ccccn3)c(=O)oc2c1 [Compound 3, Pyridin-2-ylmethyl-7-(diethylamino)-2-oxo-2H-chromene-3-carboxylate]
- reactivity to radiation reduction ([1]; 60 Gy X-ray): more reactive

Compound: CCN(CC)c1ccc2cc(C(=O)OCc3ccnc4ccccc34)c(=O)oc2c1 [Compound 4, Quinolin-4-ylmethyl-7-(diethylamino)-2-oxo-2H-chromene-3-carboxylate]
- reactivity to radiation reduction ([1]; 60 Gy X-ray): more reactive

Compound: CCN(CC)c1ccc2cc(C(=O)OCc3ccc4ccccc4n3)c(=O)oc2c1 [Compound 6, Quinolin-2-ylmethyl-7-(diethylamino)-2-oxo-2H-chromene-3-carboxylate]
- reactivity to radiation reduction ([1]; 60 Gy X-ray): more reactive

Compound: CCN(CC)c1ccc2cc(C(=O)OCc3cc[n+](C)cc3)c(=O)oc2c1 [Compound 7, (4-((7-(diethylamino)-2-oxo-2H-chromene-3-carbonyl)oxy)methyl)-1-methylpyridin-1-ium]
- coumarin release efficiency ([1]; 10 µM, 20 Gy + 10 mM HCO2Na): 53.8%
- coumarin release efficiency ([1]; 10 µM, 20 Gy + 10 mM KNO3): 0.0%
- coumarin release efficiency [1, 7]: 27.6%
- reduction yield on addition of HCOONa ([1]; 10 mM HCOONa added, 10 µM in PB pH 7.4): approximately doubled
- release efficiency in KNO3 solution relative to control ([1]; 10 µM in PB pH 7.4): significantly reduced
- release efficiency (in words) ([1]; 60 Gy X-ray): high release efficiencies
- G-value (release of the reporter molecule) ([1]; X-ray dose gradient 0 to 60 Gy, UPLC): 140 nM/Gy
- reactivity to radiation reduction ([1]; 60 Gy X-ray): more reactive

Compound: CCN(CC)c1ccc2cc(C(=O)OCc3cccc[n+]3C)c(=O)oc2c1 [Compound 9, (2-((7-(diethylamino)-2-oxo-2H-chromene-3-carbonyl)oxy)methyl)-1-methylpyridin-1-ium]
- release efficiency (in words) ([1]; 60 Gy X-ray): high release efficiencies
- reactivity to radiation reduction ([1]; 60 Gy X-ray): more reactive

Compound: Cc1cc(=O)oc2cc(NC(=O)OCc3cc[n+](C)cc3)ccc12 [Compound 10]
- G (AMC release versus radiation dose) [2]: 145 nM/Gy
- additional activation versus previously reported structures in competition [3]: 20-40%

Compound: COc1ccc2c(c1)Oc1cc(NC(=O)OCc3cc[n+](C)cc3)ccc1C21OC(=O)c2ccccc21 (stereo not shown) [NAPC-MeRho]
- spontaneous release of MeRho (U87MG cells): no spontaneous release of MeRho
- cell viability [4]: greater than 95%
- spontaneous release of MeRho (4T1-FAP cells; hypoxic conditions, 30 minutes, no radiation): no spontaneous release of MeRho
- increase of fluorescence intensity (4T1-FAP cells; 4 Gy radiation): 14.4 fold
- increase of fluorescence intensity (4T1-FAP cells; 8 Gy radiation): 27.9 fold
- increase of fluorescence intensity (4T1-FAP cells; 16 Gy radiation): 54.5 fold
- G-value for MeRho release [5]: 140 nM/Gy
- spontaneous release of MeRho (HT1080-FAP cells): no spontaneous release of MeRho
- stability to reducing agent VcNa ([6]; 10 µM, 100 eq. VcNa, pH 7.4): highly stable
- stability in cysteine and γ-glutathione solutions ([6]; compared with result in sodium ascorbate solution): the same
- fluorescence signal in tumor sections (4T1-FAP tumors; 4 Gy X-ray 30 minutes post-injection): significantly increased
- fluorescence signal in tumor sections (4T1-FAP tumors; NAPC-MeRho only): limited fluorescence signal
